In ChEMBL document CHEMBL1201862, “PubChem BioAssay data set” (2004):
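Method: 48-hour compound exposure of cells in 96-well plates, five concentrations, linear interpolation of endpoints. GI50 = concentration required for 50% inhibition of growth.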 Active and inactive are the calls of the source. Cut-off read from the data, not from the text of the source: active = GI50 up to about 1.1 µM and inactive = higher. Peptide text beside a SMILES is read from it. * marks the point of attachment. Cbz = O=C(OCc1ccccc1)*; Boc = CC(C)(C)OC(=O)*; OBn = c1ccc(CO*)cc1

Legend:
Assay in all cases: NCI-60 cell line screen, 48 h
HCT-15 = tested on: HCT-15
HOP-62 = tested on: HOP-62
M14 = tested on: M14
KM12 = tested on: KM12
SNB-19 = tested on: SNB-19
OVCAR-3 = tested on: OVCAR-3
DU-145 = tested on: DU-145
SF-268 = tested on: SF-268
SK-OV-3 = tested on: SK-OV-3
SR = tested on: SR
RPMI-8226 = tested on: RPMI-8226
BT-549 = tested on: BT-549
OVCAR-4 = tested on: OVCAR-4
MCF7 = tested on: MCF7
EKVX = tested on: EKVX
A549 = tested on: A549
OVCAR-8 = tested on: OVCAR-8
RXF 393 = tested on: RXF 393
UO-31 = tested on: UO-31
HCC 2998 = tested on: HCC 2998

| SMILES | GI50 (HCT-15) [µM] | GI50 (HOP-62) | GI50 (M14) | GI50 (KM12) | GI50 (SNB-19) | GI50 (OVCAR-3) | GI50 (DU-145) | GI50 (SF-268) | GI50 (SK-OV-3) | GI50 (SR) | GI50 (RPMI-8226) | GI50 (BT-549) | GI50 (OVCAR-4) | GI50 (MCF7) | GI50 (EKVX) | GI50 (A549) | GI50 (OVCAR-8) | GI50 (RXF 393) | GI50 (UO-31) | GI50 (HCC 2998) |
| --- | --- | --- | --- | --- | --- | --- | --- | --- | --- | --- | --- | --- | --- | --- | --- | --- | --- | --- | --- | --- |
| CC(=O)NNC(=O)C1CCCCN1 (stereo unspecified) | > 100 | > 100 µM (inactive) | > 100 µM (inactive) | > 100 µM (inactive) | > 100 µM (inactive) | > 100 µM (inactive) | > 100 µM (inactive) | > 100 µM (inactive) | > 100 µM (inactive) | > 100 µM (inactive) | > 100 µM (inactive) | > 100 µM (inactive) | > 100 µM (inactive) | > 100 µM (inactive) | > 100 µM (inactive) | > 100 µM (inactive) | > 100 µM (inactive) | > 100 µM (inactive) |  |  |
| CO/C(N)=C(C#N)/N=C/c1ccsc1 | 34.3 | > 100 µM (inactive) | 29 µM (inactive) | 60.7 µM (inactive) | > 100 µM (inactive) | 30.6 µM (inactive) | 42.4 µM (inactive) | 44.7 µM (inactive) | > 100 µM (inactive) |  |  | 20.4 µM (inactive) | > 100 µM (inactive) | 32.5 µM (inactive) | 54.6 µM (inactive) | > 100 µM (inactive) | 59 µM (inactive) | 31.8 µM (inactive) | > 100 µM (inactive) | > 100 µM (inactive) |
| CC(=O)NCCCCNCCCNC(C)=O | > 100 |  | > 100 µM (inactive) | > 100 µM (inactive) | > 100 µM (inactive) |  | > 100 µM (inactive) | > 100 µM (inactive) | > 100 µM (inactive) |  | > 100 µM (inactive) | > 100 µM (inactive) | > 100 µM (inactive) | > 100 µM (inactive) | > 100 µM (inactive) | > 100 µM (inactive) | > 100 µM (inactive) | > 100 µM (inactive) | > 100 µM (inactive) | > 100 µM (inactive) |
| COc1cc(C2c3cccc4cccc(c34)C3CCC(=O)N32)cc(O)c1O (stereo unspecified) | 23.7 | 47.1 µM (inactive) | 43.7 µM (inactive) | > 50 µM (inactive) | > 50 µM (inactive) | 18.1 µM (inactive) | > 50 µM (inactive) |  | > 50 µM (inactive) | 9.71 µM (inactive) | 11.5 µM (inactive) | > 50 µM (inactive) | 12.7 µM (inactive) | 20.6 µM (inactive) | 26.7 µM (inactive) | 31.2 µM (inactive) | 27.9 µM (inactive) | > 50 µM (inactive) | 28.8 µM (inactive) |  |
| Cc1onc(-c2c(F)cccc2Cl)c1C(=O)N[C@@H]1C(=O)N2[C@@H]1SC(C)(C)[C@@H]2C(=O)O | > 100 | > 100 µM (inactive) | > 100 µM (inactive) | > 100 µM (inactive) | > 100 µM (inactive) | > 100 µM (inactive) | > 100 µM (inactive) | > 100 µM (inactive) | > 100 µM (inactive) | > 100 µM (inactive) | > 100 µM (inactive) | > 100 µM (inactive) | > 100 µM (inactive) | > 100 µM (inactive) | > 100 µM (inactive) | > 100 µM (inactive) | > 100 µM (inactive) | > 100 µM (inactive) | 24.5 µM (inactive) |  |
| O=C(CN1CCCC1)Nc1ccc2sc3ccccc3c(=O)c2n1 | 23.2 | 16.9 µM (inactive) | 24 µM (inactive) | 19.5 µM (inactive) | 32.7 µM (inactive) | 42.9 µM (inactive) | 25.9 µM (inactive) | 24.7 µM (inactive) | 20.7 µM (inactive) | 24.9 µM (inactive) | 21.3 µM (inactive) | 25.3 µM (inactive) | 34.6 µM (inactive) | 27.2 µM (inactive) | 32.7 µM (inactive) | 16.6 µM (inactive) | 16.8 µM (inactive) |  | 14.2 µM (inactive) | 13.9 µM (inactive) |
| COC(=O)[C@H](Cc1ccccc1)NP(=O)(OCCC#N)OCC1OC(n2cc(C)c(=O)[nH]c2=O)CC1N=[N+]=[N-] (stereo partly specified) | > 100 | > 100 µM (inactive) | > 100 µM (inactive) | > 100 µM (inactive) | > 100 µM (inactive) |  | > 100 µM (inactive) | > 100 µM (inactive) | > 100 µM (inactive) |  | > 100 µM (inactive) | > 100 µM (inactive) | > 100 µM (inactive) | > 100 µM (inactive) | > 100 µM (inactive) | > 100 µM (inactive) | > 100 µM (inactive) | > 100 µM (inactive) | > 100 µM (inactive) | > 100 µM (inactive) |
| COC(=O)C(CCCCNC(=O)OCc1ccccc1)NC(=O)C(CCC(=O)OCc1ccccc1)NC(=O)OC(C)(C)C (stereo unspecified) (Boc-Glu(OBn)-Lys(Cbz)-OMe; configuration not given here) | > 100 | 15 µM (inactive) | > 100 µM (inactive) | > 100 µM (inactive) | 40.2 µM (inactive) | 73.1 µM (inactive) | > 100 µM (inactive) | > 100 µM (inactive) | 46.6 µM (inactive) | > 100 µM (inactive) | > 100 µM (inactive) | > 100 µM (inactive) | 57.3 µM (inactive) | > 100 µM (inactive) | > 100 µM (inactive) | > 100 µM (inactive) | > 100 µM (inactive) | > 100 µM (inactive) | > 100 µM (inactive) |  |
